The values that follow come from US20220031684A1, “PROPHYLACTIC EFFICACY OF SEROTONIN 4 RECEPTOR AGONISTS AGAINST STRESS” (THE TRUSTEES OF COLUMBIA UNIVERSITY IN THE CITY OF NEW YORK, priority 2019, published 2022).

Common to all, as to assay type: in vivo
For test [1], the system named is BALB/cJRj mice. Description: Open field paradigm (OF), acute anxiolytic-like effect. The conditions noted are these: for percent time spent in Center (OF) vs vehicle: male BALB/cJRj, RS67333 1.5, diazepam 1.5, fluoxetine 18 mg/kg; for time spent in the center of the OF: single dose 1.5 mg/kg, 48 hours after the injection. The source says:
(§1) Motor activity was quantified in four 39×39 cm perpex plastic open field boxes (Vivo-tech/Ugo Basile, Salon de Provence, France). The apparatus was illuminated from the ground with special designed 40×40 cm Infra-red backlights (monochromatic wavelength 850 nm high homogeneity, Vivo-tech, Salon de Provence, France). Activity chambers were monitored by four black and white cameras with varifocal optics and polarizing filters (Vivo-tech, Salon de Provence, France). For optogenetic experiments, optical bandpass filters were specifically selected to improve tracking detection. The whole set-up was controlled using ANYMAZE version 6 video tracking software (Stoelting Co/Vivo-tech, Salon de Provence, France). Dependent measures were time in the center over a 10 min for systemic administration or 6 min test period for optogenetic experiments, total ambulatory distance and ambulatory distance traveled in the center divided by total distance.

Test [2] has as its system BALB/cJRj mice. Nature of the test: Elevated plus maze (EPM), acute anxiolytic-like effect. The conditions noted are these: single dose 1.5 mg/kg; 24 hours after the injection.
The subject of test [3] is BALB/cJRj mice. Description: Novelty suppressed feeding (NSF), acute anxiolytic-like effect. The conditions noted are these: for lag for feeding in the NSF: single dose 1.5 mg/kg, 72 hours after the injection. The method, then:
(§2) RS67333 (1.5 mg/kg, i.p.), diazepam (1.5 mg/kg, i.p.), fluoxetine (18 mg/kg, i.p.) were injected 45 min before testing in the Elevated Plus Maze (EPM), the Novelty Suppressed Feeding (NSF) or the Open Field (OF) in three independent cohorts of male BALB/cJRj mice.
(§3) To ensure the selectivity of the anxiolytic-like effects of RS67333, in a new cohort of male BALB/cJRj mice, GR125487 (1.0 mg/kg, i.p.) dissolved in 0.9% NaCl solution, was injected 15 minutes before RS67333 administration (1.5 mg/kg, i.p.). EPM or NSF occurred 45 min after RS67333 administration (A-S1). Behavioral consequences of the co-administration of GR125487+RS67333 were compared to RS67333 alone, diazepam (1.5 mg/kg, i.p.) fluoxetine (18 mg/kg, i.p.) and vehicle groups (0.9% saline solution, i.p.).
(§4) For mPFC drug infusion, two bilateral cannulae (75 μm-diameter silica capillary tubing inserted in 27G stainless steel catheter) were implanted in the mPFC [stereotaxic coordinates in mm from bregma: A=+2.10, L=±0.50, V=−2.60, A, anterior; L, lateral; and V, ventral, according to (A-S10)] under anesthesia (chloral hydrate, 400 mg/kg, i.p.). […] Diazepam (1.5 mg/kg) was used as a positive control.
The NSF is a conflict test that elicits competing motivations: the drive to eat and the fear of venturing into the center of a brightly lit arena. The latency to begin eating is used as an index of anxiety/depression-like behavior, because classical anxiolytic drugs as well as chronic antidepressants decrease this measure. The NSF test was carried out during a 10 min period as previously described (A-S12). Briefly, the testing apparatus consisted of a plastic box (50×50×20 cm), the floor of which was covered with approximately 2 cm of wooden bedding. Twenty-four hours prior to behavioral testing, all food was removed from the home cage. At the time of testing, a single pellet of food (regular chow) was placed on a white paper platform positioned in the center of the box. Each animal was placed in a corner of the box, and a stopwatch was immediately started. The latency to eat (defined as the mouse sitting on its haunches and biting the pellet with the use of forepaws) was timed. Immediately afterwards, the animal was transferred to its home cage, and the amount of food consumed by the mouse in the subsequent 5 min was measured, serving as a control for change in appetite as a possible confounding factor.

For test [4], the system named is BALB/cJRj mice. Description: Elevated plus maze (EPM), acute anxiolytic-like effect. The method, then:
as §2, §3, §4
In a new cohort of male BALB/cJRj mice, p-CPA was administered twice daily (at 0900 and 1700 h) for 3 consecutive days. RS67333 ([…]) and diazepam ([…]) were then intra-mPFC administered 24 h after the final p-CPA administration and behavioral test (EPM) occurred 45 minutes after local infusion.
The EPM is a widely used behavioral assay for rodents and it has been validated to assess the anti-anxiety effects of pharmacological agents (A-S11). This test was performed as described by (A-S1). The maze is a plus-cross-shaped apparatus, with two open arms and two arms closed by walls linked by a central platform 50 cm above the floor. Mice were individually put in the center of the maze facing an open arm and were allowed to explore the maze during 5 min for the behavioral consequences of an acute systemic administration or mPFC infusion and during 6 min for the optogenetic experiments. The time spent in and the numbers of entries into the open arms were used as an anxiety index. All parameters were measured using a videotracker (EPM3C, Bioseb, Vitrolles, France).

For test [5], the system named is BALB/cJRj mice. Description: OF with optogenetic inhibition of mPFC terminals in the DRN (CaMKII-ArchT). Particulars: intra-mPFC RS67333 0.5 pg/side or diazepam 1.5 pg/side; for inhibition of the drug-induced increase in center time (OF) during 3-min green light illumination: light ON.
From the text: as §1
To target opsin expression selectively to cortical glutamatergic terminals in the DRN, AAV5-CaMKIIα-ChR2-enhanced yellow fluorescent protein (eYFP), AAV5-CaMKII-ArchT-green fluorescent protein (GFP) or AAV5-CaMKII-eYFP, obtained from Karl Deisseroth and Ed Boyden (UNC Vector Core, NC, USA) were bilaterally injected into the mPFC (in mm from bregma, A=+2.10, L=±0.50, V=−2.60). Mice injected with AAV5-CamKII-eYFP were used as control.
BALB/cJRj mice were surgically implanted with fiber optics targeted to the DRN (in mm from bregma, A=−4.50, L=+1.20, V=−4.0, angle 15°). A […] core, 0.37 NA fiber optic (ThorLabs, ˜10-12 and 15-16 mW for ChR2 and Arch-T, respectively, at the tip of optic) was used for optical stimulation via a patch cable connected to either a 473 or 532 nm laser diode (OEM laser systems, USA) as previously described (A-S15). For behavioral experiments, AAV5-CaMKIIα-ChR2-eYFP mice and their controls received a 10 Hz stimulation, 20 ms pulses, over a 3-minute period whereas a green light was delivered continuously to AAV5-CaMKII-ArchT-GFP throughout the 3 min testing period. Similar doses of RS67333 (locally in the mPFC at […] or at 1.5 mg/kg, i.p.) and diazepam (locally in the mPFC at […] or at 1.5 mg/kg, i.p.) were infused in the mPFC or administered i.p. The stimulation or the inhibition of mPFC projections in the DRN occurred simultaneously to the behavioral paradigms.

Counter-ions that a name gives are not always drawn.

For the compound `CCCCN1CCC(CCC(=O)c2cc(Cl)c(N)cc2OC)CC1.Cl` [RS-67,333, 1-(4-amino-5-chloro-2-methoxyphenyl)-3-[1(n-butyl)-4-piperidinyl]-1-propanone HCl], in the test on BALB/cJRj mice [1] (i.p. 45 min before testing), the “percent time spent in Center (OF) vs vehicle” value was “increase”. Moreover, the “time spent in the center of the OF” value in the test with BALB/cJRj mice [1] is reported as “increased the time spent in the center”. Also, the “anxiolytic effects in the EPM” value with BALB/cJRj mice [2] is reported as “have not identified the anxiolytic effects expected”. In addition, the “latency to feed (NSF) vs vehicle” value in the test with BALB/cJRj mice [3] (intra-mPFC infusion of RS67333 45 min before testing) is recorded as “decreased latency to feed”; in the test on BALB/cJRj mice [3] (male BALB/cJRj, i.p. 45 min before testing, RS67333 1.5, diazepam 1.5, fluoxetine 18 mg/kg), “decreased the latency to feed”. Also, the “lag for feeding in the NSF” value with BALB/cJRj mice [3] is on record as “reduced the lag for feeding”. Besides, the “time and percent time spent in the open arms (EPM) vs vehicle” value was “significantly increased time and percent time spent in the open arms” with BALB/cJRj mice [4] (intra-mPFC infusion 45 min before testing, RS67333 0.5 pg/side (1 pg), diazepam 1.5 pg/side, HCl); “increased” in the test on BALB/cJRj mice [4] (male BALB/cJRj, i.p. 45 min before testing, RS67333 1.5 mg/kg, diazepam 1.5 mg/kg). Further, the “time spent in the center (OF), light OFF” value in the test with BALB/cJRj mice [5] is listed as “increased significantly the time spent in the center”. For the same compound, the “inhibition of the drug-induced increase in center time (OF) during 3-min green light illumination” value in the test on BALB/cJRj mice [5] came out at 85±20%.
In the case of `CN1C(=O)CN=C(c2ccccc2)c2cc(Cl)ccc21` [diazepam, Diazepam hydrochloride], in the test with BALB/cJRj mice [1] (i.p. 45 min before testing, RS67333 1.5, diazepam 1.5 mg/kg), the “ratio of ambulatory distance in the center divided by total distance (OF) vs vehicle” value is given as “significantly increased”. For the same compound, the “percent time spent in Center (OF) vs vehicle” value in the test with BALB/cJRj mice [1] (i.p. 45 min before testing) is “increase”. In addition, the “time spent in the center of the OF” value with BALB/cJRj mice [1] is “have not been able to observe any long-term activity”. Also, the “anxiolytic effects in the EPM” value in the test with BALB/cJRj mice [2] was “have not been able to observe any long-term activity”. Also, the “latency to feed (NSF) vs vehicle” value in the test on BALB/cJRj mice [3] (male BALB/cJRj, i.p. 45 min before testing, RS67333 1.5, diazepam 1.5, fluoxetine 18 mg/kg, hydrochloride) is on record as “decreased the latency to feed”. Besides, the “lag for feeding in the NSF” value in the test with BALB/cJRj mice [3] is reported as “have not been able to observe any long-term activity”. Further, the “ratio of ambulatory distance in the open arms divided by total distance (EPM) vs vehicle” value in the test on BALB/cJRj mice [4] (i.p. 45 min before testing, RS67333 1.5 mg/kg, diazepam 1.5 mg/kg) is “significantly increased”. In addition, the “time and percent time spent in the open arms (EPM) vs vehicle” value in the test with BALB/cJRj mice [4] (intra-mPFC infusion 45 min before testing, RS67333 0.5 pg/side (1 pg), diazepam 1.5 pg/side) is “increased time, percent time spent in the open arms”; in the test with BALB/cJRj mice [4] (male BALB/cJRj, i.p. 45 min before testing, RS67333 1.5 mg/kg, diazepam 1.5 mg/kg, hydrochloride), “significantly increased time and percent time spent in the open arms”. The “drug-induced increase in time, percent time in open arms and ratio open arms/total distance (EPM) in 5-HT-depleted p-CPA mice” value in the test with BALB/cJRj mice [4] (p-CPA pre-treatment 3 days, intra-mPFC RS67333 0.5 pg/side or diazepam 1.5 pg/side) is on record as “abolished”. In the test on BALB/cJRj mice [5], the “time spent in the center (OF), light OFF” value is on record as “increased significantly the time spent in the center”. In addition, the “inhibition of the drug-induced increase in center time (OF) during 3-min green light illumination” value with BALB/cJRj mice [5] is given as 80±22%.
